Experimental data reported in patent publication US12630632B2, “Bispecific HER2 and CD3 binding molecules” (Memorial Sloan Kettering Cancer Center, priority 2017, dated 2026).
Entries after “also recorded” stand apart in the source; their conditions may differ.

Experiments:
[1] = test system: cervical carcinoma HeLa cells; assay: Cell proliferation assay (WST-8); assay type: cell-based, human; settings: 10 nM kinase inhibitors, 10 μg/mL antibodies
Protocol: (§1) Cell proliferation was determined using an ELISA plate reader and the WST-8 kit (Dojindo technologies) following the manufacturer's instructions and using the formula: % survival rate=(Sample-Background)/(Negative control-Background). Lapatinib (MSKCC pharmacy) was ground using a mortar and pestle and suspended in DMSO as previously described. To determine statistical significance, the results were analyzed using one-way ANOVA using Prism 6.0.
(§2) For cell proliferation assays, 5,000 tumor cells were plated using RPMI-1640 supplemented with 10% FBS in a 96 well plate for 36 hours before being treated with lapatinib or the antibodies at the specified concentrations. Cell proliferation was determined using an ELISA plate reader and the WST-8 kit (Dojindo technologies) following the manufacturer's instructions and using the formula: % survival rate=(Sample-Background)/(Negative control-Background). Lapatinib (Memorial Sloan Kettering Cancer Center pharmacy) was ground using a mortar and pestle and suspended in DMSO as previously described (Chen et al., 2012, Molecular cancer therapeutics 11:660-669). To determine statistical significance, the results were analyzed using one-way ANOVA using Prism 6.0.
(§3) For tumor cell proliferation, 5,000 tumor cells were plated using RPMI-1640 supplemented with 10%, fetal bovine serum (“FBS”) in a 96 well plate for 36 hours before being treated with—kinase inhibitors or the antibodies at the specified concentration. Cell proliferation was determined using the cell counting WST-8 kit (Dojindo technologies) following the manufacturer's instructions and using the formula: % survival rate=(Sample-Background)(Negative control-Background). Lapatinib was ground using a mortar and pestle and suspended in DMSO as previously described (Chen et al., Molecular cancer therapeutics 2012; 11:660-9). To determine statistical significance, the results were analyzed using one-way ANOVA using Prism 6.0.

[2] = test system: osteosarcoma cell line U2OS; assay: Cell proliferation assay (WST-8); assay type: cell-based, human; settings: 10 nM kinase inhibitors, 10 μg/mL antibodies
Protocol: as §1, §2, §3

SCCHN cell line PCI-30 = assay: Cell proliferation assay (WST-8); assay type: cell-based, human; settings: 10 nM kinase inhibitors, 10 μg/mL antibodies
Protocol: as §1, §2, §3

HeLa = assay: T-cell cytotoxicity, 51Cr release assay; assay type: cell-based, human; settings: HeLa pre-treated with lapatinib
Protocol: (§4) The ^51Cr release assay was performed with effector T cells cultured in vitro in the presence of anti-CD3 and anti-CD28 for about 14 days. All target tumor cells were harvested with 2 mM EDTA in PBS, labeled with ^51Cr (Amersham, Arlington Height, IL) at 100 μCi/106 cells at 37° C. for 1 h. 5000 target cells/well were mixed with 50,000 effector cells (E:T=10:1) and BsAb antibodies in 96-well polystyrene round-bottom plates (BD Biosciences) to a final volume of 250 μl/well. The plates were incubated at 37° C. for 4 h. The released ^51Cr in supernatant was counted in a γ-counter (Packed Instrument, Downers Grove, IL). Percentage of specific release was calculated using the formula: (experimental cpm−background cpm)/(total cpm−background cpm)×100%, where cpm represented counts per minute of ^51Cr released. Total release was assessed by lysis with 10% SDS (Sigma, St Louis, Mo), and background release was measured in the absence of effector cells. EC50 was calculated using SigmaPlot software.
Cell cytotoxicity was assayed by ^51Cr release as previously described (Xu et al., Cancer immunology research 2015; 3:266-77), and EC50 was calculated using SigmaPlot software. Effector PBMC cells were purified from buffy coats purchased from the New York Blood Center. […]

[3] = test system: HCC1954 breast cancer xenograft; assay: s.c. tumor plus i.v. effector cells xenograft model; assay type: in vivo, DKO mice; settings: i.v. PBMC 7.5×10^6 once per week for 2 weeks, 100 μg i.v. twice per week for 4 weeks (Example 4)
Text: Three humanized mouse xenograft models were used: (1) intravenous tumor plus intravenous effector cells; (2) subcutaneous tumor plus subcutaneous effector cells; and (3) subcutaneous tumor plus intravenous effector cells. Subcutaneous xenografts were created with 5×10^6 cells suspended in Matrigel (Corning Corp, Tewksbury MA) and implanted in the flank of DKO mice. Effector peripheral blood mononuclear cell (PBMC) cells were purified from buffy coats purchased from the New York Blood Center. Prior to every experimental procedure, PBMCs were analyzed for their percentage of CD3, CD4, CD8 and CD56 cells to ensure consistency. […] Tumor size was measured using (1) hand-held TM900 scanner (Pieira, Brussels, BE); (2) Calipers; or (3) bioluminescence. Bioluminescence imaging was conducted using the Xenogen In Vivo Imaging System (IVIS) 200 (Caliper LifeSciences). Briefly, mice were injected intravenously with 0.1 mL solution of D-luciferin (Gold Biotechnology; 30 mg/mL stock in PBS). […]
Effector PBMC cells and ATCs were prepared as described above. Prior to every experimental procedure, PBMCs and ATCs were analyzed by FACS for their percentage of CD3, CD4, CD8 and CD56 cells to ensure consistency. […] Tumor size was measured using 1) hand-held TM900 scanner (Pieira, Brussels, BE), 2) Calipers, or 3) Bioluminescence. […]

[4] = test system: HER2(+) SCCHN PCI-13 cells; assay: Blocking of HER2-BsAb T-cell cytotoxicity by trastuzumab or anti-CD3; assay type: cell-based, human; settings: for effect of blocking antibody on HER2-BsAb induced T cell cytotoxicity: HER2-positive cells pre-incubated with blocking antibody (Examples 1, 2)
Protocol: as §4

naïve T cells = assay: T cell proliferation (WST-8); assay type: cell-based, human; settings: 67 nM antibody, 6 days
Protocol: For T cell proliferation, naïve T cells were purified from human PBMC using Pan T cell isolation kit (Miltenyi Biotec). 2×10^5 purified T cells were mixed with different antibodies in 96-well cell culture plate to a final volume of 250 μl/well. T cells were cultured and maintained in RPMI-1640 supplemented with 10% FBS in 37° C. for 6 days. T cell proliferation was quantitated using the WST-8 kit as described above.

Compound: C#Cc1cccc(Nc2ncnc3cc(OCCOC)c(OCCOC)cc23)c1 [erlotinib]
- sensitivity in proliferation assay [1]: resistant
- sensitivity in proliferation assay ([1]; listed as Erlotinib): pan-resistant
- sensitivity in proliferation assay [2]: minimal sensitivity; also recorded: resistant
- sensitivity in proliferation assay (SCCHN cell line PCI-30): resistant

Compound: CS(=O)(=O)CCNCc1ccc(-c2ccc3ncnc(Nc4ccc(OCc5cccc(F)c5)c(Cl)c4)c3c2)o1 [lapatinib]
- sensitivity in proliferation assay [1]: no effect on cell proliferation; also recorded: resistant
- sensitivity in proliferation assay ([1]; listed as Lapatinib): pan-resistant
- sensitivity in proliferation assay [2]: resistant
- sensitivity in proliferation assay ([2]; listed as Lapatinib): minimal sensitivity
- sensitivity in proliferation assay (SCCHN cell line PCI-30): resistant
- effect of pretreatment on sensitivity to HER2-BsAb mediated cytotoxicity (HeLa): enhances

Compound: CCOc1cc2ncc(C#N)c(Nc3ccc(OCc4ccccn4)c(Cl)c3)c2cc1NC(=O)/C=C/CN(C)C [neratinib]
- sensitivity in proliferation assay [1]: resistant
- sensitivity in proliferation assay ([1]; listed as Neratinib): pan-resistant
- sensitivity in proliferation assay [2]: minimal sensitivity; also recorded: resistant
- sensitivity in proliferation assay (SCCHN cell line PCI-30): resistant

Compound: Atezolizumab
- tumor volume [3]: no effect

Compound: OKT3: CD3 specific blocking mAb
- effect of blocking antibody on HER2-BsAb induced T cell cytotoxicity [4]: prevented

Compound: Pembrolizumab
- tumor volume [3]: no effect

Compound: huOKT3: humanized anti-CD3 OKT3 IgG1, bivalent
- T cell proliferation in the absence of tumor targets (naïve T cells): robust T cell proliferation
- effect of blocking antibody on HER2-BsAb induced T cell cytotoxicity [4]: block
- effect of blocking antibody on HER2-BsAb T-cell cytotoxicity ([4]; PCI-13, 0.1 μg/mL HER2-BsAb, 10 μg/mL blocking antibodies): prevented; also recorded: abrogates
